Source: ChEMBL document CHEMBL5308504, “Tm Shift (DSF) assay results for EUbOPEN Chemogenomics Library” (2023)

Experiments:
[1] = biological target: T1, Peregrin (Homo sapiens) (UniProt P55201); details: Compound concentration 20.0 uM, Protein concentration 2.0 uM, Result type QC Liability
T1 sequence (whole entry): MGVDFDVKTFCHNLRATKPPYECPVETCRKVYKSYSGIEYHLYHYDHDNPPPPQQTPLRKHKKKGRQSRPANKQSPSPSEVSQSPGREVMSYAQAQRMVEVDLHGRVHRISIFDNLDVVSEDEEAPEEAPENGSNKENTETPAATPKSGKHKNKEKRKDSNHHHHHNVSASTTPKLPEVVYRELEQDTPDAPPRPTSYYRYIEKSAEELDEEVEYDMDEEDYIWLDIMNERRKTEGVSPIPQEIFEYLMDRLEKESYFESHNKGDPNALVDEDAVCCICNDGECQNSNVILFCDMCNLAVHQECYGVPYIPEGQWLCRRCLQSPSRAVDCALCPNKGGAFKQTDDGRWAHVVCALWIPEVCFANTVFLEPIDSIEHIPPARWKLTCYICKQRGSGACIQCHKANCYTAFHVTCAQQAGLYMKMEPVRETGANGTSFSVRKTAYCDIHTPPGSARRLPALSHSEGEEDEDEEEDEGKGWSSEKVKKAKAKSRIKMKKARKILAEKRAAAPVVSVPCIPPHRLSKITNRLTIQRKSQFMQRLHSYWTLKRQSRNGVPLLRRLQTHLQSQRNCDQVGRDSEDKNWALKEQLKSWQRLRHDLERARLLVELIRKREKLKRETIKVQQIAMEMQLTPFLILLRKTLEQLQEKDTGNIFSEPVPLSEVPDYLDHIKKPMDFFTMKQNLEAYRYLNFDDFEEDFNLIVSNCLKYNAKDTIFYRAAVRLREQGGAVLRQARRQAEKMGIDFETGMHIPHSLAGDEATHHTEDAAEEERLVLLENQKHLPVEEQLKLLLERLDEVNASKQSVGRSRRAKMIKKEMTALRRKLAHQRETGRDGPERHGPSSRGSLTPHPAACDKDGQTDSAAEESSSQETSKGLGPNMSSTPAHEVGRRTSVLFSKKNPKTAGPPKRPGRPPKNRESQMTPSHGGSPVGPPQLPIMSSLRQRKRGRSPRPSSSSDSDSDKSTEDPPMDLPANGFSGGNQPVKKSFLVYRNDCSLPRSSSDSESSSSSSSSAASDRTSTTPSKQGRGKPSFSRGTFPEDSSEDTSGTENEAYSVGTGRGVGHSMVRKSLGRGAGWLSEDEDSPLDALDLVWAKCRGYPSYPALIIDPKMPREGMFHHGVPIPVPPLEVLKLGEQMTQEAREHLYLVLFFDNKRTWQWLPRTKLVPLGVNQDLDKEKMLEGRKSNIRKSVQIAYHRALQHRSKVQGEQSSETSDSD

[2] = biological target: Fibroblast growth factor receptor 3 (Homo sapiens) (UniProt P22607); details: Compound concentration 20.0 uM, Protein concentration 2.0 uM, Result type QC Liability
Fibroblast growth factor receptor 3 (Homo sapiens), sequence (P22607 23-806 limits assumed): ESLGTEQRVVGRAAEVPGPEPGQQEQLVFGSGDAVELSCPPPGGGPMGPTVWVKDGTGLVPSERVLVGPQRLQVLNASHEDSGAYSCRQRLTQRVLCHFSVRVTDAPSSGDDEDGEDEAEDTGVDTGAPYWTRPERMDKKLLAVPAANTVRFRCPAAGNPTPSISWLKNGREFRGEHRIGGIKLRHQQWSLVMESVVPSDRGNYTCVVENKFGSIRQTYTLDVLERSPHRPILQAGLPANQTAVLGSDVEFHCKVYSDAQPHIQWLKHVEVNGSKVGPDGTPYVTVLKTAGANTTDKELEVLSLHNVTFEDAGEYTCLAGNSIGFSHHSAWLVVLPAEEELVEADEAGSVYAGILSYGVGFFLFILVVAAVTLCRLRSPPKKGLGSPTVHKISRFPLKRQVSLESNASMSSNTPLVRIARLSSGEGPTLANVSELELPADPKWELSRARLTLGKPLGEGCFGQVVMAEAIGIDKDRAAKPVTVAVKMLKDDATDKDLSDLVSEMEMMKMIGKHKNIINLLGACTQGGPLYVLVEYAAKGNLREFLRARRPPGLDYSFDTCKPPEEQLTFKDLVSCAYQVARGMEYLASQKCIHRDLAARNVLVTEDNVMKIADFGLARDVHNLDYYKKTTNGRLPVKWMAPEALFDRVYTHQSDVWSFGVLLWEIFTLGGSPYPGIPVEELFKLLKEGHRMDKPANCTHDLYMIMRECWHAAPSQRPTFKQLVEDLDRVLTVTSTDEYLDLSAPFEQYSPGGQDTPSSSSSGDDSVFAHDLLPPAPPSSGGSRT
Description: Thermal Shift Assay. Domain: start/stop: P449-E759

| SMILES | ΔTm [1] | ΔTm [2] |
| --- | --- | --- |
| COP(=O)(CCC(N)C(=O)O)Oc1cccc(CC(=O)O)c1 (stereo unspecified) | -1.49 °C | 0.51 °C |
| CCCCc1c(-c2ccccc2)nc(N)nc1-c1ccc(OCc2ccccc2)c(F)c1F | -4.97 °C | -0.31 °C |
| CS(=O)(=O)CCNCc1ccc(-c2ccc3ncnc(Nc4ccc(OCc5cccc(F)c5)c(Cl)c4)c3c2)o1 | -1.41 °C | 0.79 °C |
| N#Cc1ccc(C#CC[C@@H](C#N)NC(=O)[C@@H]2CCCCN2)cc1F | -2.06 °C | 0.43 °C |
| CC(=O)N1CCN([C@H]2CCC[C@@H](NC(=O)c3cc4c(F)ccc(C)c4[nH]3)C2)CC1 | -1.84 °C | 0.6 °C |
| CC1CCN(C(=O)[C@H](CCn2cccc2C#N)NS(=O)(=O)c2cccc3[nH]ccc23)CC1 | -2.12 °C | 0.35 °C |
| Cc1cc(Cn2c(N3CC4(CNC4)C3)nc3cc(Cl)cc(N4CCN(C)CC4)c32)cc(C)c1F | -2.07 °C | 1.32 °C |
| COCCN(C)c1ccc(NC(=O)/C=C(\C)c2ccc3ccccc3c2)c(C(=O)O)c1 | -1.83 °C | 1.15 °C |
| CSc1nc2c(c(=O)n(C)c(=O)n2C)n1C | -2.2 °C | 0.45 °C |
| Cc1cc(-c2nc(-c3ccc(OC(F)(F)F)cc3)no2)nn1Cc1ccnc(N2CCN(C3CC3)CC2)c1 | -10.7 °C | 1.28 °C |
| NC(=O)c1sc2nc(N3CCC(NC[C@H](O)c4ccccn4)CC3)cc(C(F)(F)F)c2c1N | -0.86 °C | 1.99 °C |
| Cc1nccn1-c1ccc(Sc2cccc(C3(C(N)=O)CCOCC3)c2)cc1 | -1.72 °C | 0.44 °C |
| O=C(NCCS(=O)(=O)c1ccc(C(F)(F)F)cn1)c1ccc(Cl)cc1 | -0.99 °C | 0.38 °C |
| Cc1nc(Nc2cnn(C3CCNCC3)c2)nc2c1N(C)C(=O)c1cc3ccccc3cc1N2C | -2.69 °C | 1.22 °C |
| CC[C@H]1[C@@H](O)[C@@H]2[C@H](CC[C@]3(C)[C@@H]([C@H](C)CCC(=O)O)CC[C@@H]23)[C@@]2(C)CC[C@@H](O)C[C@@H]12 | -1.33 °C | 0 °C |
| Cc1cnc(Nc2ccc(C(=O)N3CCN(C)CC3)cc2)nc1N[C@@H]1CCC[C@@H]1C(N)=O | -1.57 °C | 7.25 °C |
| CC1(C)CCC(CN2CCN(c3ccc(C(=O)NS(=O)(=O)c4ccc(NCC5CCOCC5)c([N+](=O)[O-])c4)c(Oc4cnc5[nH]ccc5c4)c3)CC2)=C(c2ccc(Cl)cc2)C1 | -1.4 °C | 1.11 °C |
| N#CN1CC[C@H](C(=O)Nc2nc3c(s2)CN(C(=O)CN=[N+]=[N-])CC3)C1 | -1.51 °C | 1.09 °C |
| FC(F)(F)c1ccc(CNc2ccc(Cc3c[nH]c4ncc(Cl)cc34)cn2)cn1 | -0.43 °C | 3.63 °C |
| Cc1sc(C(=O)c2cncnc2N[C@@H]2C[C@H](COS(N)(=O)=O)[C@@H](O)C2)cc1[C@@H]1NCCc2ccc(Cl)cc21 | -2.76 °C | 0.36 °C |

| SMILES | ΔTm [1] | ΔTm [2] |
| --- | --- | --- |
| C[S+]([O-])c1ccc(-c2nc(-c3cccc(I)c3)c(-c3ccncc3)[nH]2)cc1 (stereo unspecified) | -1.44 °C | -1.51 °C |
| CCc1cc2c(cc1N1CCC(N3CCOCC3)CC1)C(C)(C)c1[nH]c3cc(C#N)ccc3c1C2=O | -1 °C | 0.56 °C |
| Cc1cn(CCN2CCN(c3ccccc3-c3cc(C#N)cc(C(=O)NCCCN4CCCC4)c3)CC2)c2ccccc12 | 0.42 °C | -1.2 °C |
| Clc1ccc(-c2nc3sccn3c2/C=N/OCc2ccc(Cl)c(Cl)c2)cc1 | -0.92 °C | 0.55 °C |
| CN[C@@H](C)C(=O)N[C@H]1CN(C(=O)CC(C)C)CC[C@H]2CC[C@@H](C(=O)NC(c3ccccc3)c3ccccc3)N2C1=O | -1.53 °C | 0.83 °C |
| CC[C@@H](Nc1c(C#N)c(-c2ccc(-c3cccc(C)c3F)cc2)nc2cnccc12)C(=O)O | -0.66 °C | 0 °C |
| C[C@H](CCC(=O)O)[C@H]1CC[C@H]2[C@@H]3CC[C@@H]4C[C@H](O)CC[C@]4(C)[C@H]3C[C@H](O)[C@]12C | -1.82 °C | 0.63 °C |
| O=C(N[C@H]1CCC[C@H](CO)C1)C1CCN(c2nc3cc(Cl)c(-c4ccc(Cl)cc4)cc3o2)CC1 | -0.52 °C | -8.62 °C |
| Cc1nc2cccnc2n2c(-c3cc([C@@]4(O)CCCOC4)ccc3Cl)nnc12 | -2.38 °C | 0.59 °C |
| CCCCCNC(=O)N1CCC(CN(Cc2ccc(Cl)cc2)Cc2ccc([N+](=O)[O-])s2)C1 (stereo unspecified) | -0.19 °C | 0.77 °C |
| CC(C)(O)[C@H]1CC[C@H](Nc2ccc3ncc(-c4cccc(C(F)(F)F)c4)n3n2)CC1 | 3.48 °C | 0.8 °C |
| COc1cc(-c2cn(C)c(=O)c3cnccc23)cc(OC)c1CN(C)C | 1.79 °C | 0.44 °C |
| C=CC[C@@H]1/C=C(\C)C[C@H](C)C[C@H](OC)[C@H]2O[C@@](O)(C(=O)C(=O)N3CCCC[C@H]3C(=O)O[C@H](/C(C)=C/[C@@H]3CC[C@@H](O)[C@H](OC)C3)[C@H](C)[C@@H](O)CC1=O)[C@H](C)C[C@@H]2OC | -3.28 °C | 0.4 °C |
| COc1ccc(CC[C@@H](OC(=O)[C@H]2CCCCN2C(=O)[C@@H](c2cc(OC)c(OC)c(OC)c2)C2CCCCC2)c2cccc(OCCN3CCOCC3)c2)cc1OC | -4.81 °C | -3.96 °C |
| Nc1ncc2c(n1)-c1c([nH]c3ccc(C4=CCOCC4)cc13)CCC2 | -2.26 °C | 1.34 °C |
| COc1ccc2c(O[C@@H]3C[C@H]4C(=O)N[C@]5(C(=O)NS(=O)(=O)C6(C)CC6)CC5/C=C\CCCCC[C@H](NC(=O)c5ccn(C)n5)C(=O)N4C3)cc(OC(C)C)nc2c1C (stereo partly specified) | -0.57 °C | 0.93 °C |
| COc1cc(F)ccc1-c1ncnc(Nc2cccc(C[S@](C)(=N)=O)c2)n1 | -1.17 °C | 1.31 °C |
| CN(C)C(=O)Cn1cc(-c2nc([C@@](C)(c3ccc(-c4cnc(N)nc4)cc3)C3CC3)no2)cn1 | -1.93 °C | 0.61 °C |
| Nc1ncnc2c1c(COc1cccc(Cl)c1)nn2C1CCOCC1 | -1.86 °C | 1.63 °C |
| N[C@@H]1CCCN(c2c(/C=C3\SC(=O)NC3=O)cccc2-c2ccccc2)C1 | -2.04 °C | 0.95 °C |

| SMILES | ΔTm [1] | ΔTm [2] |
| --- | --- | --- |
| CN(C)C/C=C/C(=O)Nc1cccc(S(=O)(=O)N2CCC(NC(=O)c3n[nH]cc3NC(=O)c3c(Cl)cc(Cl)cc3Cl)CC2)c1 | -0.81 °C | 6.8 °C |
| COc1cccc(CNc2ccc(S(=O)(=O)Nc3nc4ccccc4s3)cc2)c1O | -0.69 °C | 1.44 °C |
| COc1ccc(-c2c(-c3ccccc3)oc3ncnc(O[C@H](C)CCCCC(=O)O)c23)cc1 | -6.64 °C | -0.48 °C |
| CN(CC(=O)Nc1ccc(F)c(F)c1F)C(=O)c1ccc2c(c1)OCCO2 | -0.72 °C | 0.6 °C |
| CN(C)CC#Cc1ccc2[nH]c3c(c2c1)-c1nc(N)ncc1CCC3 | -0.87 °C | 3.51 °C |
| COc1ccc(COc2ccc(Cc3cnc(N)nc3N)cc2OC)cc1 | -1.34 °C | 0.48 °C |
| CNCc1ccc(-c2cc(-c3nc(-c4ccc(S(=O)(=O)C(C)C)cc4)cnc3N)on2)cc1 | -0.8 °C | -1.35 °C |
| CCC(C)(C)CC[C@H](NC(=O)N1CCOCC1)C(=O)NC1(C#N)CCN(C)CC1 | -3.19 °C | 0.71 °C |
| Cc1cc(Cn2c(N3CC4(CNC4)C3)nc3c(N4CCN(C)CC4)cc(Cl)cc32)cc(C)c1F | -3.49 °C | 0.86 °C |
| CCCN1C(=O)c2ccc(Cl)cc2Nc2ncccc21 | -3.34 °C | 1.35 °C |
| CCn1ccc(Nc2ncc3c(n2)-c2c(nn(C)c2-c2ccc(-c4cnn(C)c4)cc2Cl)CC3)n1 | -0.93 °C | 2.93 °C |
| O=C(Cc1ccccc1)Nc1nnc(N2C[C@H]3C[C@@H]2CN3c2cccnn2)s1 | -0.88 °C | 0.46 °C |
| CCOc1cc(CC(=O)N[C@@H](CC(C)C)c2ccccc2N2CCCCC2)ccc1C(=O)O | -3.67 °C | 0.18 °C |
| C[C@H](NC(=O)c1cnc2n1[C@](C)(Cc1ccc(C#N)cc1)C(=O)N2c1cc(Cl)c(F)c(Cl)c1)C(=O)NC1(c2ccccn2)CC1 | -0.27 °C | 0.96 °C |
| C[C@@H]1CC(=O)N(C2CC2)N=C1c1ccc(NC(=O)N2Cc3ccncc3C2)cc1 | -2.03 °C | 0.58 °C |
| CCOC(=O)/N=C(\N)c1ccc(OCc2cccc(COc3ccc(C(C)(C)c4ccc(OC(=O)OCC)cc4)cc3)c2)cc1 | -8.55 °C | 0.54 °C |
| COc1nc2ccc([C@@](O)(c3ccccc3)C3CCN(C(C)=O)CC3)cc2c(Cl)c1Cc1ccc(-n2cccn2)cc1 | -1.27 °C | 5.87 °C |
| COc1cc(N[C@@H]2CCCC[C@]2(O)C(F)(F)F)ccc1F | -1.55 °C | 0.65 °C |
